Data taken from patent publication US6518284B2, “4-substituted piperidines” (Faes, Fabrica Espanola de Productos Quimicos Y …, priority 1999, dated 2003).
Read-outs that look alike come from different tables or passages of the source.

How the values were obtained:
Format in all cases: binding
[1] = target: T1, Dopamine uptake sites (transporters) (Rattus norvegicus, UniProt P23977); experiment: Affinity for dopamine uptake sites (transporters), rat brain; details: read-out: K1 values, Dopamine uptake sites (transporters)
T1 construct: Uptake sites (transporters); Rat brain; from tissue; host or cells: rat brain

[2] = target: T2, serotonin reuptake receptors (5HT) / Serotonin uptake sites (transporters) (Rattus norvegicus, UniProt P31652); experiment: Affinity for serotonin reuptake sites, [3H]-paroxetine radioligand, rat cerebral cortex; details: Rat brain; read-out: K1 values, Serotonin uptake sites (transporters)
T2 construct: from tissue; host or cells: rat cerebral cortex
Source text: (§1) The pharmacological activity of the compounds of general formula (I) was determnined-using well-established in vitro and in vivo pharmacological processes.

[3] = target: noradrenaline (NA) reuptake receptors / Noradrenaline uptake sites (transporters) (Rattus norvegicus, UniProt Q63380); experiment: Affinity for noradrenaline reuptake sites, [3H]-nisoxetine radioligand, rat cerebral cortex; details: Rat brain, read-out: K1 values, Noradrenaline uptake sites (transporters)
Source text: as §1

noradrenaline (NA) reuptake receptors / Noradrenaline uptake sites (transporters), sequence (Q63380 1-617): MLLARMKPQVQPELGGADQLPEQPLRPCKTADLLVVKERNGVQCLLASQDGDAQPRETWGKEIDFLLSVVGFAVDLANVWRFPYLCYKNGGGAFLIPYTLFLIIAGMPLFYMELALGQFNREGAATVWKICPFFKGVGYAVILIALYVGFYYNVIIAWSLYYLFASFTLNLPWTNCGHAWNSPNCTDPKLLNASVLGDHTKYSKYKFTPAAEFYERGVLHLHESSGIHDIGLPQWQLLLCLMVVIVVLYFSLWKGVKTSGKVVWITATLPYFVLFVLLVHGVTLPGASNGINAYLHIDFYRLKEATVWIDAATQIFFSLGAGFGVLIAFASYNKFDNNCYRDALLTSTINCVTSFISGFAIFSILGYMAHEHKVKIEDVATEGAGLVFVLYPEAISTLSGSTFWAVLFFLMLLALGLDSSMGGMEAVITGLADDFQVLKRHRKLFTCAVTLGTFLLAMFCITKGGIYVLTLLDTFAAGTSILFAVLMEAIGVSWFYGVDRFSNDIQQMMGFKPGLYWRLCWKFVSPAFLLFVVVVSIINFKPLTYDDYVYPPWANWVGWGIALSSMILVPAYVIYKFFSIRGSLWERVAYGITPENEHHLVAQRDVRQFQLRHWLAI
T2 sequence (P31652 whole entry): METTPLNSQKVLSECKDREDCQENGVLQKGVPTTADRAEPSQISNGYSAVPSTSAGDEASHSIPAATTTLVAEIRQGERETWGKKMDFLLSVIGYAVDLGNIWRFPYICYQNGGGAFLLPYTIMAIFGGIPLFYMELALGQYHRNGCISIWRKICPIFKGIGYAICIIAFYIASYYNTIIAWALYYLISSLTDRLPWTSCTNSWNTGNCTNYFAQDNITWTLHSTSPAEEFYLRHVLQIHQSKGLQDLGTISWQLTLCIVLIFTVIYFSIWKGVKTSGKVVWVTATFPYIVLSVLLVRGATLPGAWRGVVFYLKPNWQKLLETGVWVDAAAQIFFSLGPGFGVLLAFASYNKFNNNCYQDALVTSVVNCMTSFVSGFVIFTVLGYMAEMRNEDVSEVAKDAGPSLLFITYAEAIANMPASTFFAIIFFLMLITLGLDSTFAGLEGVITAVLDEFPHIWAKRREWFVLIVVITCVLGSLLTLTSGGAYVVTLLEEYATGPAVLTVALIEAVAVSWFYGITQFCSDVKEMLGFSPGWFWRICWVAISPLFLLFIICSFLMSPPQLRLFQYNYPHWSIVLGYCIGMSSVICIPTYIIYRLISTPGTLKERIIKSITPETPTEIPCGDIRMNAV
T1 sequence (P23977 whole entry): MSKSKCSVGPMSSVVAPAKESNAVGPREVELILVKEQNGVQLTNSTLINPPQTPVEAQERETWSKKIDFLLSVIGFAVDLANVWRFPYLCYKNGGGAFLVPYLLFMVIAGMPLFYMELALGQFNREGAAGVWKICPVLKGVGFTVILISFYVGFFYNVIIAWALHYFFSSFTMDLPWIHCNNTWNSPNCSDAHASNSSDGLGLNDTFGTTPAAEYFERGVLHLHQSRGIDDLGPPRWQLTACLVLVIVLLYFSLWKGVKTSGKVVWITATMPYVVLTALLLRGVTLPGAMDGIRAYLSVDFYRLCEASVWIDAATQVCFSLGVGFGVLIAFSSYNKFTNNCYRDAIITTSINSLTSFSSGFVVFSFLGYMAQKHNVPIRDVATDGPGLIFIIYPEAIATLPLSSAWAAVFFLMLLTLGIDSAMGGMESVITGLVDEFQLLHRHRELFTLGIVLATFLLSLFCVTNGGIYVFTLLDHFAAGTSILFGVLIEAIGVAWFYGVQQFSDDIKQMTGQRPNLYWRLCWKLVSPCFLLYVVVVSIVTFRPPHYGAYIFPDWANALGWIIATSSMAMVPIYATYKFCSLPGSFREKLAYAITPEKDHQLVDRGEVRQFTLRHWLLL

Row | Structure (SMILES) | Ki [1] | Ki [2] | Ki [3] | Ki ([1]; bounds given in μM) | Ki ([3]; bounds given in μM)
1 | Fc1ccc(O[C@@H](c2ccccc2)C2CCNCC2)cc1 [Compound F-97814-TA] | 0.821 µM | 0.00045 µM | – | – | –
2 | Fc1ccc(O[C@H](c2ccccc2)C2CCNCC2)cc1 [Compound F-97815-TA] | 0.253 µM | 0.0459 µM | 1.45 µM | – | –
3 | Fc1cccc(O[C@@H](c2ccccc2)C2CCNCC2)c1 [Compound F-98212-TA] | – | – | 0.107 µM | > 1 µM | –
4 | Fc1cccc(O[C@H](c2ccccc2)C2CCNCC2)c1 [Compound F-98214-TA] | 0.461 µM | – | 0.0135 µM | – | –
5 | FC(F)(F)c1ccc(OC(c2ccccc2)C2CCNCC2)cc1 (stereo not drawn) [Compound F-98404-TA] | – | 0.0149 µM | – | > 1 µM | > 10 µM
6 | FC(F)(F)c1ccc(O[C@H](c2ccccc2)C2CCNCC2)cc1 [Compound F-98408-TA] | – | 0.0348 µM | – | > 1 µM | > 10 µM
7 | O=[N+]([O-])c1ccc(O[C@H](c2ccccc2)C2CCNCC2)cc1 [Compound F-98603-PD] | – | 0.00063 µM | – | > 10 µM | > 1 µM
8 | Fc1ccccc1O[C@H](c1ccccc1)C1CCNCC1 [Compound F-98607-PD] | – | 0.0042 µM | 0.0225 µM | > 1 µM | –
9 | O=[N+]([O-])c1ccc(OC(c2ccccc2)C2CCNCC2)cc1 (stereo not drawn) [Compound F-98610-PD] | – | 0.0151 µM | – | > 1 µM | > 1 µM
10 | Clc1cccc(O[C@@H](c2ccccc2)C2CCNCC2)c1 [Compound F-98616-TA] | – | – | 0.0558 µM | > 1 µM | –
11 | Clc1cccc(O[C@H](c2ccccc2)C2CCNCC2)c1 [Compound F-98620-TA] | – | – | – | > 1 µM | –
12 | N#Cc1cccc(O[C@H](c2ccccc2)C2CCNCC2)c1 [Compound F-98715-TA] | 0.11 µM | 0.00168 µM | 0.0869 µM | – | –
13 | N#Cc1cccc(OC(c2ccccc2)C2CCNCC2)c1 (stereo not drawn) [Compound F-98716-TA] | – | 0.00143 µM | 0.18 µM | > 1 µM | –
14 | Fc1ccccc1O[C@@H](c1ccccc1)C1CCNCC1 [Compound F-98718-PD] | 0.52 µM | 0.0285 µM | 0.0414 µM | – | –
15 | Fc1cc(F)cc(O[C@H](c2ccccc2)C2CCNCC2)c1 [Compound F-98814-TA] | – | 0.0014 µM | 0.0248 µM | > 1 µM | –
16 | Fc1cc(F)cc(O[C@@H](c2ccccc2)C2CCNCC2)c1 [Compound F-98822-TA] | – | 0.00709 µM | 0.386 µM | > 1 µM | –
17 | Fc1cccc(O[C@H](c2cccc(F)c2)C2CCNCC2)c1 [Compound F-98828-PD] | 0.113 µM | 0.00999 µM | 0.128 µM | – | –
18 | Fc1cccc(O[C@@H](c2cccc(F)c2)C2CCNCC2)c1 [Compound F-98829-PD] | – | 0.00283 µM | 0.0175 µM | > 1 µM | –
19 | Fc1cccc([C@H](Oc2ccccc2F)C2CCNCC2)c1 [Compound F-98917-PD] | – | 0.0043 µM | 0.0191 µM | > 1 µM | –
20 | Fc1cccc([C@@H](Oc2ccccc2F)C2CCNCC2)c1 [Compound F-98925-PD] | 0.377 µM | 0.0276 µM | 0.0481 µM | – | –
